Key:
[1] = format: in vivo; conditions: rat, tail vein; 300 μl of 5% free or 1 ml of 0.2% encapsulated
Procedure: 300 μl of 5% fluorescein sodium or 1 ml of 0.2% encapsulated fluorescein sodium, were administered to the rat through the tail vain and the retina monitored. Free fluorescein was removed by use of ultracentrifugation and PD-10 columns as outlined earlier.
It is important to highlight that the retinal blood vessels were not seen with the encapsulated material (A-C) as they are without (D-F), although there is a hint of arterial wall fluorescence in the encapsulated treated eye at 34 minutes (B). […] They were absent from the non-encapsulated eyes. These focal patches of fluorescence are believed to be intact liposomes containing fluorescein. […] The appearance, of fluorescent patches or “monofocal leakages” of sodium flourescein is similar to that that has been described when BBB disruption occurs in the brain (see FIG. 20 from Natah, S. S. et al. J Appl Physiol 107: 1348-1356 2009).

[2] = format: in vivo; conditions: rat, tail vein, 2 hours; 300 μl of 5% free or 1 ml of 0.2% encapsulated
Procedure: 300 μl of 5% fluorescein sodium or 1 ml of 0.2% encapsulated fluorescein sodium, were administered to the rat through the tail vain and the retina monitored. Free fluorescein was removed by use of ultracentrifugation and PD-10; columns as outlined earlier. After 2 hours; under general anaesthesia, the animals underwent fixation perfusion with 4% paraformaldehyde. Brains were stored in 4% paraformaldehyde overnight, following which 800 um slices were cut and examined under fluorescent confocal microscopy.
The images in FIG. 24 come from similar regions in the brain from an animal with intravenous encapsulated fluorescein sodium (A-B) compared to one with plain intravenous fluorescein sodium (C-D). Both fluorescence (A, C) and transmission (B, D) images are shown. […] This confirms the fact that encapsulation allows the fluorescein sodium to cross the BBB.
The appearance of fluorescent patches or “monofocal leakages” of sodium flourescein is similar to that that has been described when BBB disruption occurs in the brain, as discussed earlier (Natah, S. S. et al. J Appl Physiol 107: 1348-1356 2009).

[3] = In vivo labelling of retinal vasculature by alpha-bungarotoxin
Text: The invention also provides alpha-bungarotoxin (αBT) for use in labelling the retinal vasculature of a subject. This is in vivo labelling. αBT is know to bind to nicotinic acetylcholine receptors (nAChRs) and is readily used to label the end plate of neuromuscular junctions ex vivo. It has not been applied to labelling in vivo due to it's potential neuromuscular inhibitory effects when used systemically. However, such problems are not seen when using it directly in the eye. The wall of the retinal vasculature, and in particular the arteries, is a muscular environment housing nAChRs. Therefore, αBT labels them specifically. This patterned labelling in the eye is something that is otherwise very difficult to achieve. Preferably, the αBT is administered directly to the retinal vasculature of the eye, for example, by intravitreal injection. Preferably, the αBT is labelled with an imaging moiety such as fluorescein.

[4] = format: in vivo; conditions: intravitreal injection, eyes imaged after 3 hours
Procedure: To access the release of encapsulated material, liposomes containing encapsulated αBT and annexin V-776 were administered via Intravitreal injection and the eyes were imaged after 3 hours.

For `O=C1OC2(c3ccc(O)cc3Oc3cc(O)ccc32)c2ccccc21` [Fluorescein, fluorescein sodium], the “crossing of the blood retinal barrier” value [1] was “unable to cross an intact blood retinal barrier and remains isolated to the vessels” and the “fluorescence in brain slices” value [2] was “no signal at all”.

For alpha-bungarotoxin [αBT], the “labelling of retinal vessels” value [3] was “specifically labels the arteries in the retina”.

For “Annexin V-776: labelled annexin V, anionic phospholipid binding protein, given with liposomes”, the “release of cargo from liposomes” value [4] was “successful release”.
